By IC50 is commonly meant the concentration needed to halve the response being measured.

For assay [1], the system named is IL-6. The assay can be described thus: IL-6 release from LPS-primed, nigericin-treated THP1 macrophages, Hu IL-6 AlphaLISA. Particulars: Homo sapiens, THP-1; PMA-differentiated THP1, LPS 20 ng/ml 3 hrs, compound 1 hr, Nigericin 6.7 uM 3 hrs, supernatant. The class given is cell-based. (In general: In Alpha technology, singlet oxygen from a donor bead excites a nearby acceptor bead.)

Assay [2] addresses NLRP3 inflammasome (Homo sapiens, UniProt Q96P20). Kind of assay: NLRP3 inflammasome activation in THP1 macrophages (LPS priming, nigericin), IL-1β AlphaLISA. The class given is cell-based. The note with it: PMA-differentiated THP1, LPS 20 ng/ml 3 hrs, compound 1 hr, Nigericin 6.7 uM 3 hrs, supernatant.

Sequence of NLRP3 inflammasome (Q96P20 whole entry): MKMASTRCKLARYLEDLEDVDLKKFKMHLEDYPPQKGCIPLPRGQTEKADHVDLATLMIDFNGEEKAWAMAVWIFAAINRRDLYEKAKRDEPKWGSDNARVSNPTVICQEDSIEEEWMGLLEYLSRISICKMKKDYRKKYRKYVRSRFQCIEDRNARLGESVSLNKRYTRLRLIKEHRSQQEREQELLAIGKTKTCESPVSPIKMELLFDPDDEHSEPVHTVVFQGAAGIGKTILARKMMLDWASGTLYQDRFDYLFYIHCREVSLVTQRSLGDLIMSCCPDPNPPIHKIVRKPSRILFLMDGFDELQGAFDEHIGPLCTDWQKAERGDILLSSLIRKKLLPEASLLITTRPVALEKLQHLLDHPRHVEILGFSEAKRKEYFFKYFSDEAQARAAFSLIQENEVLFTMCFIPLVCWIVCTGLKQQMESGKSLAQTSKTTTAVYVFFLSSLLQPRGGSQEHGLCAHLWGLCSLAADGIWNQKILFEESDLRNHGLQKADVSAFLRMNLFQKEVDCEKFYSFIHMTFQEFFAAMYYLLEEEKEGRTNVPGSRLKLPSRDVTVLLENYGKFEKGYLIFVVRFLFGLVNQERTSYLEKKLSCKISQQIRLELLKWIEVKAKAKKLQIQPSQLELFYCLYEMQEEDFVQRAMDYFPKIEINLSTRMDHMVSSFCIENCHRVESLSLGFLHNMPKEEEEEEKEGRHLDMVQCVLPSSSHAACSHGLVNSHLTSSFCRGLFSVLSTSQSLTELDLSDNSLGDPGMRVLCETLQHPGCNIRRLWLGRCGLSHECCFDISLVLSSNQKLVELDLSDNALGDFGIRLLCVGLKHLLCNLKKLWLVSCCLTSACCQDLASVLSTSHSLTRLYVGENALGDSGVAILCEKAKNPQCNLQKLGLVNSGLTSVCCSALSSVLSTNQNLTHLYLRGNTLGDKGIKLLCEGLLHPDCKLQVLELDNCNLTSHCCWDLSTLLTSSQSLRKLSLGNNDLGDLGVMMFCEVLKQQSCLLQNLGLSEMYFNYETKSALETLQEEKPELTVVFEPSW

Turning to `Cc1cc(F)cc(C)c1-c1ccc(N[C@@H]2CCCN(C)C2)nn1` [compound 110], the figures for the IC50 in assay [1] and in assay [2] were 5000 to 10000 nM and greater than 1000 nM, respectively.
In the same order, the values of `CN1CCC[C@@H](Nc2nnc(-c3ccc(C(F)(F)F)cc3)cc2C(F)(F)F)C1` [compound 111] are greater than 10000 nM and greater than 1000 nM.
Take `Cc1cc(-c2cc(C)c(N[C@@H]3CCCN(C)C3)nn2)ccc1F` [compound 112]: the figures for the IC50 in assay [1] and in assay [2] were greater than 10000 nM and greater than 1000 nM, respectively.
In the same order, the values of `Cc1cc(-c2ccc(C(F)(F)F)c(C#N)c2)nnc1N[C@@H]1CCCN(C)C1` [compound 113] are greater than 10000 nM and greater than 1000 nM.
In the same order, the values of `Cc1cc(N[C@@H]2CCCN(CC(F)(F)F)C2)nnc1-c1ccc(C(F)(F)F)cc1` [compound 114] are greater than 10000 nM and greater than 1000 nM.
In the same order, the values of `Cc1cc(N[C@@H]2CCCN(CC(F)(F)F)C2)nnc1-c1ccc(F)cc1` [compound 115] are 5000 to 10000 nM and greater than 1000 nM.
Regarding `Cc1cc(N[C@@H]2CCCN(CC(F)F)C2)nnc1-c1ccc(F)cc1` [compound 116], the IC50 in assay [1] was greater than 10000 nM; in assay [2], greater than 1000 nM.
In the same order, the values of `Cc1cc(-c2ccc(F)c(F)c2)nnc1N[C@@H]1CCCN(C)C1` [compound 117] are greater than 10000 nM and greater than 1000 nM.
In the same order, the values of `Cc1cc(N[C@H]2CCCN(C)C2)nnc1-c1ccc(C(F)(F)F)cc1` [compound 118] are greater than 10000 nM and greater than 1000 nM.
In the same order, the values of `Cc1cc(N[C@H]2CN(C)CC(F)(F)C2)nnc1-c1ccc(F)cc1` [compound 119] are greater than 10000 nM and greater than 1000 nM.
Turning to `Cc1cc(N[C@@H]2CCCN(C3CC3)C2)nnc1-c1ccc(F)cc1` [compound 120], the IC50 in assay [1] is greater than 10000 nM; in assay [2] it was 50 to 100 nM.
Regarding `Cc1cc(N[C@H]2CN(C)CC[C@H]2F)nnc1-c1ccc(F)cc1` [compound 121], the half-inhibitory concentration (IC50) was greater than 10000 nM in assay [1] and 100 to 500 nM in assay [2].
In the same order, the values of `CCN1CCC[C@@H](Nc2cc(C)c(-c3ccc(F)cc3)nn2)C1` [compound 122] are greater than 10000 nM and 10 to 50 nM.
As for `Cc1cc(Cl)ccc1-c1nnc(N[C@@H]2CCCN(C)C2)cc1C` [compound 123], the IC50 was greater than 10000 nM in assay [1] and no more than 10 nM in assay [2].
In the same order, the values of `Cc1cc(Cl)ccc1-c1cc(C)c(N[C@@H]2CCCN(C)C2)nn1` [compound 124] are 5000 to 10000 nM and 10 to 50 nM.
In the same order, the values of `Cc1cc(Cl)ccc1-c1ccc(N[C@@H]2CCCN(C)C2)nn1` [compound 125] are greater than 10000 nM and 50 to 100 nM.
For the compound `CN1CCC[C@@H](Nc2ccc(-c3ccc(F)cc3)nn2)C1` [compound 126], the IC50 was greater than 10000 nM in assay [1] and greater than 1000 nM in assay [2].
`Cc1cc(N[C@@H]2CCCN(C)C2)nnc1-c1ccc(Cl)cc1` [compound 127]: the results for the half-inhibitory concentration (IC50) in assay [1] and in assay [2] were greater than 10000 nM and no more than 10 nM, respectively.
In the same order, the values of `Cc1cc(-c2ccc(Cl)cc2)nnc1N[C@@H]1CCCN(C)C1` [compound 128] are greater than 10000 nM and 100 to 500 nM.
As to `CN1CCC[C@@H](Nc2ccc(-c3ccc(Cl)cc3)nn2)C1` [compound 129], the IC50 in assay [1] is greater than 10000 nM; in assay [2], 50 to 100 nM.
In the same order, the values of `CN1CCC[C@@H](Nc2ccc(-c3ccc(F)cc3C(F)(F)F)nn2)C1` [compound 130] are 5000 to 10000 nM and 10 to 50 nM.
In the same order, the values of `Cc1cc(N[C@H]2CCCN(C(C)C)C2)nnc1-c1ccc(C(F)(F)F)cc1` [compound 131] are greater than 10000 nM and 500 to 1000 nM.
In the same order, the values of `Cc1cc(F)ccc1-c1nnc(N[C@@H]2CCCN(C)C2)cc1C` [compound 132] are greater than 10000 nM and 10 to 50 nM.
For the compound `Cc1cc(F)ccc1-c1cc(C)c(N[C@@H]2CCCN(C)C2)nn1` [compound 133], the IC50 is greater than 10000 nM in assay [1] and 10 to 50 nM in assay [2].

The record behind these values is patent publication US20250074888A1, “PYRIDAZINE DERIVATIVES AS MODULATORS OF NLRP3 INFLAMMASOME AND RELATED METHODS” (Neumora Therapeutics, Inc., priority 2021, published 2025).
